These results are taken from patent US10144732B2 (BIOGEN MA INC., priority 2014, dated 2018).

pIC50: −log10 of the molar value. Where “and” joins values, the source holds several entries; their conditions need not be identical. Equal values may be shown once. Where a name gives a salt, the structure may show the parent alone.

The target in one test is T1, Human ATX protein (Homo sapiens, UniProt Q13822).
T1 construct: made in house
Nature of the test: ATX biochemical assay (FRET, FS-3 substrate). Conditions: FRET assay, FS-3 2 μM, ATX 1.0 μg/mL, 30 minutes preincubation, 2 hours reaction at room temperature; read-out: IC50. The method, boiled down:
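In-house human ATX (1.0 μg/mL final) was preincubated with compound for 30 min at room temperature in Tris buffer pH 7.4 with 1 mg/mL fatty acid free-BSA. FS-3 substrate (2 μM final) was then hydrolysed for 2 hours at room temperature, protected from light, and read as fluorescence at ex 485/em 538 nm.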
Consider `CS(=O)(=O)NC(=O)[C@H]1CC[C@@H](CC(=O)N2CCc3c(C(F)(F)F)nn(Cc4ccc(F)cc4)c3C2)CC1` [Example 19-2, cis-4-(2-(1-(4-fluorobenzyl)-3-(trifluoromethyl)-4,5-dihydro-1H-pyrazolo[3,4-c]pyridin-6(7H)-yl)-2-oxoethyl)-N-(methylsulfonyl)cyclohexane carboxamide], for which the pIC50 is no less than 7.00.

For `O=C(CC1CC(N2CCCCC2)C1)N1CCc2c(C(F)(F)F)nn(Cc3ccc(F)cc3)c2C1` (centres unmarked) [Example 22-4, 1-(1-(4-Fluorobenzyl)-3-(trifluoromethyl)-4,5-dihydro-1H-pyrazolo[3,4-c]pyridin-6(7H)-yl)-2-(3-(piperidin-1-yl)cyclobutyl)ethanone TFA salt], the pIC50 is no less than 7.00.

For the molecule `O=C(C[C@H]1CC[C@H](C(=O)O)CC1)N1CCc2c(C(F)(F)F)nn(Cc3cncnc3)c2C1` [Example 5-29, trans-4-(2-Oxo-2-(1-(pyrimidin-5-ylmethyl)-3-(trifluoromethyl)-4,5-dihydro-1H-pyrazolo[3,4-c]pyridin-6(7H)-yl)ethyl)cyclohexanecarboxylic acid], the pIC50 is < 6.30 and ≥ 5.00.

As to `CCN1CCC(CC(=O)N2CCc3c(C(F)(F)F)nn(Cc4ccc(Cl)cc4F)c3C2)CC1` [Example 11-3, 1-(1-(4-Chloro-2-fluorobenzyl)-3-(trifluoromethyl)-4,5-dihydro-1H-pyrazolo[3,4-c]pyridin-6(7H)-yl)-2-(1-ethylpiperidin-4-yl)ethanone HCl salt], the pIC50 is no less than 7.00.

Turning to `O=C(CC1CCC(N2CCC2)CC1)N1CCc2c(C(F)(F)F)nn(Cc3ccc(F)cc3)c2C1` (centres unmarked) [Example 22-6, 2-(4-(Azetidin-1-yl)cyclohexyl)-1-(1-(4-fluorobenzyl)-3-(trifluoromethyl)-4,5-dihydro-1H-pyrazolo[3,4-c]pyridin-6(7H)-yl)ethanone TFA salt], the pIC50 is no less than 7.00.

Consider `COc1ccc(Cn2nc(C(F)(F)F)c3c2CN(C(=O)C[C@H]2CC[C@H](C(=O)O)CC2)CC3)cc1` [Example 5-15, trans-4-(2-(1-(4-Methoxylbenzyl)-3-(trifluoromethyl)-4,5-dihydro-1H-pyrazolo[3,4-c]pyridin-6(7H)-yl)-2-oxoethyl)cyclohexanecarboxylic acid], for which the pIC50 is no less than 7.00.

Consider `CCOC(=O)[C@H]1CC[C@H](CC(=O)N2CCc3c(C(N)=O)nn(Cc4ccc(F)cc4)c3C2)CC1` [Example 1-42, trans-Ethyl 4-(2-(3-carbamoyl-1-(4-fluorobenzyl)-4,5-dihydro-1H-pyrazolo[3,4-c]pyridin-6(7H)-yl)-2-oxoethyl)cyclohexanecarboxylate], for which the pIC50 is < 6.30 and ≥ 5.00.

Consider `CCOC(=O)[C@H]1CC[C@H](CC(=O)N2CCc3c(C(F)F)nn(Cc4ccc(F)cc4)c3C2)CC1` [Example 1-38, trans-Ethyl 4-(2-(3-(difluoromethyl)-1-(4-fluorobenzyl)-4,5-dihydro-1H-pyrazolo[3,4-c]pyridin-6(7H)-yl)-2-oxoethyl)cyclohexanecarboxylate], for which the pIC50 is no less than 7.00.

As to `O=C(C[C@H]1CC[C@H](C(=O)O)CC1)N1CCc2c(C(F)(F)F)nn(Cc3cc(F)c(F)c(F)c3)c2C1` [Example 5-33, trans-4-(2-(1-(3,4,5-Trifluorobenzyl)-3-(trifluoromethyl)-4,5-dihydro-1H-pyrazolo[3,4-c]pyridin-6(7H)-yl)-2-oxoethyl)cyclohexanecarboxylic acid], the pIC50 was no less than 7.00.

As for `O=C(O)CC1CCN(CC(=O)N2CCc3c(C(F)(F)F)nn(Cc4ccc(F)cc4)c3C2)C1` (centres unmarked) [Example 13-25, 2-(1-(2-(1-(4-Fluorobenzyl)-3-(trifluoromethyl)-4,5-dihydro-1H-pyrazolo[3,4-c]pyridin-6(7H)-yl)-2-oxoethyl)pyrrolidin-3-yl)acetic acid TFA salt], the pIC50 was no less than 7.00.

For `CS(=O)(=O)NC(=O)[C@H]1CC[C@H](CC(=O)N2CCc3c(C(F)(F)F)nn(Cc4ccc(F)cc4)c3C2)CC1` [Example 19-1, trans-4-(2-(1-(4-Fluorobenzyl)-3-(trifluoromethyl)-4,5-dihydro-1H-pyrazolo[3,4-c]pyridin-6(7H)-yl)-2-oxoethyl)-N-(methylsulfonyl)cyclohexanecarboxamide], the pIC50 was no less than 7.00.

As for `O=C(O)C[C@H]1CC[C@@H](CC(=O)N2CCc3c(C(F)(F)F)nn(Cc4ccc(F)cc4)c3C2)CC1` [Example 5-49, 2-(cis-4-(2-(1-(4-Fluorobenzyl)-3-(trifluoromethyl)-4,5-dihydro1H-pyrazolo[3,4-c]pyridin-6(7H)-yl)-2-oxoethyl)cyclohexyl)acetic acid], the pIC50 is no less than 7.00.

Regarding `CC(C)(C)OC(=O)NC12CCC(C(=O)N3CCc4c(C(F)(F)F)nn(Cc5ccc(F)cc5)c4C3)(CC1)CC2` [Example 8-10, tert-Butyl 4-(1-(4-fluorobenzyl)-3-(trifluoromethyl)-4,5,6,7-tetrahydro-1H-pyrazolo[3,4-c]pyridine-6-carbonyl)bicyclo[2.2.2]octan-1-ylcarbamate], the pIC50 is no less than 7.00.

Consider `O=C(O)C1CCC(CC(=O)N2CCc3c(C(F)(F)F)nn(Cc4ccc(Cl)cc4F)c3C2)C1` (mixture of isomers) [Example 6-6, 3-(2-(1-(4-Chloro-2-fluorobenzyl)-3-(trifluoromethyl)-4,5-dihydro-1H-pyrazolo[3,4-c]pyridin-6(7H)-yl)-2-oxoethyl)cyclopentanecarboxylic acid], for which the pIC50 was no less than 7.00.

With `O=C(O)C1CCC(CC(=O)N2CCc3c(C(F)(F)F)nn(CC4CCCCC4)c3C2)CC1` (single isomer, unassigned) [Example 7-13, 4-(2-(1-(cyclohexylmethyl)-3-(trifluoromethyl)-4,5-dihydro-1H-pyrazolo[3,4-c]pyridin-6(7H)-yl)-2-oxoethyl)cyclohexanecarboxylic acid], the pIC50 was no less than 7.00.

For `O=C(C[C@H]1CC[C@H](C(=O)O)CC1)N1CCc2c(C(F)(F)F)nn(Cc3cccs3)c2C1` [Example 5-26, trans-4-(2-Oxo-2-(1-(thiophen-2-ylmethyl)-3-(trifluoromethyl)-4,5-dihydro-1H-pyrazolo[3,4-c]pyridin-6(7H)-yl)ethyl)cyclohexanecarboxylic acid], the pIC50 is no less than 7.00.

Take `O=C(O)CCCCC(=O)N1CCc2c(C(F)(F)F)nn(Cc3ccc(Cl)cc3F)c2C1` [Example 14-1, 6-(1-(4-Chloro-2-fluorobenzyl)-3-(trifluoromethyl)-4,5-dihydro-1H-pyrazolo[3,4-c]pyridin-6(7H)-yl)-6-oxohexanoic acid]: the pIC50 is no less than 7.00.

As to `O=C(CC1CCN2CCCC2C1)N1CCc2c(C(F)(F)F)nn(Cc3ccc(Cl)cc3F)c2C1` (centres unmarked) [Example 1-33, 1-(1-(4-Chloro-2-fluorobenzyl)-3-(trifluoromethyl)-4,5-dihydro-1H-pyrazolo[3,4-c]pyridin-6(7H)-yl)-2-(octahydroindolizin-7-yl)ethanone TFA salt], the pIC50 is no less than 7.00.

As to `CC(c1ccc(F)cc1)n1nc(C(F)(F)F)c2c1CN(C(=O)C[C@H]1CC[C@H](C(=O)O)CC1)CC2` (stereo partly drawn) [Example 5-19, trans-4-(2-(1-(1-(4-Fluorophenyl)ethyl)-3-(trifluoromethyl)-4,5-dihydro-1H-pyrazolo[3,4-c]pyridin-6(7H)-yl)-2-oxoethyl)cyclohexanecarboxylic acid], the pIC50 is no less than 7.00.

For `O=C(C[C@H]1CC[C@@H](C(=O)O)CC1)N1CCc2c(C(F)(F)F)nn(Cc3ccc(F)cc3)c2C1` [Example 7-2, cis-4-(2-(1-(4-fluorobenzyl)-3-(trifluoromethyl)-4,5-dihydro-1H-pyrazolo[3,4-c]pyridin-6(7H)-yl)-2-oxoethyl)cyclohexanecarboxylic acid], the pIC50 is no less than 7.00.

On to `O=C(O)CCNCC(=O)N1CCc2c(C(F)(F)F)nn(Cc3ccc(Cl)cc3F)c2C1` [Example 13-32, 3-(2-(1-(4-Chloro-2-fluorobenzyl)-3-(trifluoromethyl)-4,5-dihydro-1H-pyrazolo[3,4-c]pyridin-6(7H)-yl)-2-oxoethylamino)propanoic acid TFA salt], for which the pIC50 is no less than 7.00.

As to `CCOC(=O)C1CCC(CC(=O)N2CCc3cnn(Cc4ccc(Cl)cc4F)c3C2)CC1` (centres unmarked) [Example 1-4, Ethyl 4-(2-(1-(4-chloro-2-fluorobenzyl)-4,5-dihydro-1H-pyrazolo[3,4-c]pyridin-6(7H)-yl)-2-oxoethyl)cyclohexanecarboxylate], the pIC50 was no less than 7.00.

Consider `COC(=O)[C@H]1CC[C@H](NC(=O)N2CCc3c(C(F)(F)F)nn(Cc4ccc(Cl)cc4F)c3C2)CC1` [Example 3-2, trans-Methyl 4-(1-(4-chloro-2-fluorobenzyl)-3-(trifluoromethyl)-4,5,6,7-tetrahydro-1H-pyrazolo[3,4-c]pyridine-6-carboxamido)cyclohexanecarboxylate], for which the pIC50 was 6.60 to 7.00.

Still in this test, the particulars now being: IC50, FRET assay, FS-3 2 μM, ATX 1.0 μg/mL, 30 minutes preincubation, 2 hours reaction at room temperature.
For the molecule `COC(=O)C1CC2COCC(C1)N2CC(=O)N1CCc2c(C(F)(F)F)nn(Cc3ccc(F)cc3)c2C1` (centres unmarked) [Example 12-18, Methyl 9-(2-(1-(4-fluorobenzyl)-3-(trifluoromethyl)-4,5-dihydro-1H-pyrazolo[3,4-c]pyridin-6(7H)-yl)-2-oxoethyl)-3-oxa-9-azabicyclo[3.3.1]nonane-7-carboxylate], the pIC50 was no less than 7.00.

For `CN1C2CCC1CC(CC(=O)N1CCc3c(C(F)(F)F)nn(Cc4ccc(Cl)cc4F)c3C1)C2` (centres unmarked) [Example 10-1, 1-(1-(4-Chloro-2-fluorobenzyl)-3-(trifluoromethyl)-4,5-dihydro-1H-pyrazolo[3,4-c]pyridin-6(7H)-yl)-2-(8-methyl-8-aza-bicyclo[3.2.1]octan-3-yl)ethanone TFA salt], the pIC50 was no less than 7.00.

`CC(C)(C)OC(=O)N1C2CCC1CC(CC(=O)N1CCc3c(C(F)(F)F)nn(Cc4ccc(Cl)cc4F)c3C1)C2` (centres unmarked) [Example 8-1, tert-Butyl 3-(2-(1-(4-chloro-2-fluorobenzyl)-3-(trifluoromethyl)-4,5-dihydro-1H-pyrazolo[3,4-c]pyridin-6(7H)-yl)-2-oxoethyl)-8-azabicyclo[3.2.1]octane-8-carboxylate] had a pIC50 of no less than 7.00.

Usually pIC50 stands for the IC50 on a negative log10 scale, so that one unit is a factor of ten.
